Columns and labels:
[1] = test system: blackgrass; experiment: Test B preemergence/postemergence greenhouse plant response rating 0 to 10; type: in vivo, Alopecurus myosuroides; conditions: 0 to 10 scale
In short: (§1)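 Postemergence treatment of plants two to eighteen cm tall ran alongside preemergence treatment of planted seed, each using compound in a non-phytotoxic solvent.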

[2] = test system: wild buckwheat; experiment: Test C preemergence/postemergence greenhouse plant response rating 0 to 100; type: in vivo, Polygonum convolvulus; conditions: POSTEMERGENCE; for Plant response rating, Wild buckwheat: 0 to 100 scale
In short: (§2)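 Compounds in non-phytotoxic solvent went onto sandy loam before emergence (seeded one day earlier) or onto plants at the one-to-four leaf stage. Duck salad was treated via flood water (~2.5 cm, maintained) over silt loam.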

[3] = test system: barnyardgrass; experiment: Test C flood test plant response rating 0 to 100; type: in vivo, Echinochloa crus-galli; conditions: for Plant response rating Barnyardgrass 2: flood test species listed under POSTEMERGENCE, 0 to 100 scale
In short: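 Compounds in non-phytotoxic solvent applied preemergence to sandy loam one day after planting, postemergence at the 1–4 leaf stage, or to ~2.5 cm floodwater over silt loam.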

[4] = test system: wheat; experiment: Test B preemergence/postemergence greenhouse plant response rating 0 to 10; type: in vivo, Triticum aestivum; conditions: 0 to 10 scale
In short: as §1

[5] = test system: crabgrass; experiment: as above; type: in vivo, Digitaria spp.; conditions: 0 to 10 scale
In short: as §1

[6] = test system: duck salad; experiment: Test C flood test plant response rating 0 to 100; type: in vivo, Heteranthera limosa; conditions: for Plant response rating Duck salad: flood test species listed under POSTEMERGENCE, 0 to 100 scale
In short: as §2

[7] = test system: sugar beet; experiment: Test B preemergence/postemergence greenhouse plant response rating 0 to 10; type: in vivo, Beta vulgaris; conditions: 0 to 10 scale
In short: as §1

[8] = test system: velvetleaf; experiment: Test C preemergence/postemergence greenhouse plant response rating 0 to 100; type: in vivo, Abutilon theophrasti; conditions: POSTEMERGENCE; for Plant response rating, Velvetleaf: 0 to 100 scale
In short: as §2

[9] = test system: cotton; experiment: Test B preemergence/postemergence greenhouse plant response rating 0 to 10; type: in vivo, Gossypium hirsutum; conditions: 0 to 10 scale
In short: as §1

[10] = test system: pigweed; experiment: Test C preemergence/postemergence greenhouse plant response rating 0 to 100; type: in vivo, Amaranthusretroflexus; conditions: POSTEMERGENCE; for Plant response rating Pigweed: 0 to 100 scale
In short: as §2

[11] = test system: wild oat; experiment: Test B preemergence/postemergence greenhouse plant response rating 0 to 10; type: in vivo, Avena fatua; conditions: 0 to 10 scale
In short: as §1

[12] = test system: rice; experiment: as above; type: in vivo, Oryza sativa; conditions: 0 to 10 scale
In short: as §1

[13] = test system: cotton; experiment: Test C preemergence/postemergence greenhouse plant response rating 0 to 100; type: in vivo, Gossypium hirsutum; conditions: POSTEMERGENCE; for Plant response rating, Cotton: 0 to 100 scale
In short: as §2

[14] = test system: purple nutsedge; experiment: Test B preemergence/postemergence greenhouse plant response rating 0 to 10; type: in vivo, Cyperus rotundus; conditions: 0 to 10 scale
In short: as §1

[15] = test system: wheat; experiment: Test C preemergence/postemergence greenhouse plant response rating 0 to 100; type: in vivo, Triticum aestivum; conditions: POSTEMERGENCE; for Plant response rating, Wheat: 0 to 100 scale
In short: as §2

[16] = test system: lambsquarters; experiment: as above; type: in vivo, Chenopodium album; conditions: POSTEMERGENCE; for Plant response rating Lambsquarters: 0 to 100 scale
In short: as §2

[17] = test system: sorghum; experiment: Test B preemergence/postemergence greenhouse plant response rating 0 to 10; type: in vivo, Sorghum bicolor; conditions: 0 to 10 scale
In short: as §1

[18] = test system: corn; experiment: as above; type: in vivo, Zea mays; conditions: 0 to 10 scale
In short: as §1

[19] = POSTEMERGENCE section, flood test, Rate 4 g/ha
[20] = Rate 16 g/ha, under POSTEMERGENCE head (flood test species)

Fc1cc(Cl)c(OCCCl)cc1-c1nn2c(c1Cl)CCCC2 [Compound 49]
Plant response rating, Blackgrass ([1]; POSTEMERGENCE, Rate 50 g/ha): 4
Plant response rating, Blackgrass ([1]; POSTEMERGENCE, Rate 200 g/ha): 6
Plant response rating, Blackgrass ([1]; PREEMERGENCE, Rate 50 g/ha): 0
Plant response rating, Blackgrass ([1]; Rate 200 g/ha, PREEMERGENCE): 2
Plant response rating, Wild buckwheat ([2]; 62 g/ha): 100
Plant response rating, Wild buckwheat ([2]; 250 g/ha): 100
Plant response rating (0 to 100), Wild buckwheat ([2]; Rate 4 g/ha): 100
Plant response rating (0 to 100), Wild buckwheat ([2]; Rate 16 g/ha): 100
Plant response rating (0 to 100), Barnyardgrass 2 [3, 19]: 90
Plant response rating (0 to 100), Barnyardgrass 2 [3, 20]: 100
Plant response rating Barnyardgrass 2 ([3]; 62 g/ha): 100
Plant response rating Barnyardgrass 2 ([3]; 250 g/ha): 100
Plant response rating, Wheat ([4]; POSTEMERGENCE, Rate 50 g/ha): 5
Plant response rating, Wheat ([4]; PREEMERGENCE, Rate 50 g/ha): 0
Plant response rating, Wheat ([4]; Rate 200 g/ha, POSTEMERGENCE): 4
Plant response rating, Wheat ([4]; Rate 200 g/ha, PREEMERGENCE): 2
Plant response rating, Crabgrass ([5]; POSTEMERGENCE, Rate 50 g/ha): 4
Plant response rating, Crabgrass ([5]; PREEMERGENCE, Rate 50 g/ha): 0
Plant response rating, Crabgrass ([5]; Rate 200 g/ha, PREEMERGENCE): 5
Plant response rating (0 to 100), Duck salad [6, 19]: 20
Plant response rating (0 to 100), Duck salad [6, 20]: 70
Plant response rating Duck salad ([6]; 62 g/ha): 90
Plant response rating Duck salad ([6]; 250 g/ha): 95
Plant response rating, Sugar beet ([7]; POSTEMERGENCE, Rate 50 g/ha): 10
Plant response rating, Sugar beet ([7]; PREEMERGENCE, Rate 50 g/ha): 9
Plant response rating, Sugar beet ([7]; Rate 200 g/ha, POSTEMERGENCE): 10
Plant response rating, Sugar beet ([7]; Rate 200 g/ha, PREEMERGENCE): 10
Plant response rating, Velvetleaf ([8]; 62 g/ha): 100
Plant response rating, Velvetleaf ([8]; 250 g/ha): 100
Plant response rating (0 to 100), Velvetleaf ([8]; Rate 4 g/ha): 50
Plant response rating (0 to 100), Velvetleaf ([8]; Rate 16 g/ha): 90
Plant response rating, Cotton ([9]; POSTEMERGENCE, Rate 50 g/ha): 10
Plant response rating, Cotton ([9]; POSTEMERGENCE, Rate 200 g/ha): 10
Plant response rating, Cotton ([9]; PREEMERGENCE, Rate 50 g/ha): 2
Plant response rating, Cotton ([9]; Rate 200 g/ha, PREEMERGENCE): 2
Plant response rating Pigweed ([10]; 62 g/ha): 100
Plant response rating Pigweed ([10]; 250 g/ha): 100
Plant response rating (0 to 100), Pigweed ([10]; Rate 4 g/ha): 70
Plant response rating (0 to 100), Pigweed ([10]; Rate 16 g/ha): 100
Plant response rating, Wild oat ([11]; POSTEMERGENCE, Rate 50 g/ha): 3
Plant response rating, Wild oat ([11]; PREEMERGENCE, Rate 50 g/ha): 0
Plant response rating, Wild oat ([11]; Rate 200 g/ha, POSTEMERGENCE): 4
Plant response rating, Rice ([12]; POSTEMERGENCE, Rate 50 g/ha): 5
Plant response rating, Rice ([12]; PREEMERGENCE, Rate 50 g/ha): 0
Plant response rating, Rice ([12]; Rate 200 g/ha, POSTEMERGENCE): 6
Plant response rating, Rice ([12]; Rate 200 g/ha, PREEMERGENCE): 0
Plant response rating, Cotton ([13]; 62 g/ha): 100
Plant response rating, Cotton ([13]; 250 g/ha): 100
Plant response rating (0 to 100), Cotton ([13]; Rate 4 g/ha): 90
Plant response rating (0 to 100), Cotton ([13]; Rate 16 g/ha): 90
Plant response rating, Nutsedge ([14]; POSTEMERGENCE, Rate 50 g/ha): 2
Plant response rating, Nutsedge ([14]; PREEMERGENCE, Rate 50 g/ha): 0
Plant response rating, Nutsedge ([14]; Rate 200 g/ha, POSTEMERGENCE): 6
Plant response rating, Nutsedge ([14]; Rate 200 g/ha, PREEMERGENCE): 0
Plant response rating, Wheat ([15]; 62 g/ha): 50
Plant response rating, Wheat ([15]; 250 g/ha): 70
Plant response rating (0 to 100), Wheat ([15]; Rate 4 g/ha): 10
Plant response rating (0 to 100), Wheat ([15]; Rate 16 g/ha): 20
Plant response rating Lambsquarters ([16]; 62 g/ha): 100
Plant response rating Lambsquarters ([16]; 250 g/ha): 100
Plant response rating (0 to 100), Lambsquarters ([16]; Rate 4 g/ha): 100
Plant response rating (0 to 100), Lambsquarters ([16]; Rate 16 g/ha): 100
Plant response rating, Sorghum ([17]; POSTEMERGENCE, Rate 50 g/ha): 3
Plant response rating, Sorghum ([17]; PREEMERGENCE, Rate 50 g/ha): 0
Plant response rating, Sorghum ([17]; Rate 200 g/ha, POSTEMERGENCE): 5
Plant response rating, Sorghum ([17]; Rate 200 g/ha, PREEMERGENCE): 1
Plant response rating, Corn ([18]; POSTEMERGENCE, Rate 50 g/ha): 3
Plant response rating, Corn ([18]; POSTEMERGENCE, Rate 200 g/ha): 4
Plant response rating, Corn ([18]; PREEMERGENCE, Rate 50 g/ha): 0
Plant response rating, Corn ([18]; Rate 200 g/ha, PREEMERGENCE): 2
